We go through 21 compounds from patent US8580762B2, “Substituted purine and 7-deazapurine compounds” (Epizyme, Inc., priority 2010, dated 2013).

Where only a bound is given, the exact number is not on record here.

DOT1L(1-416), sequence (Q8TEK3 1-416): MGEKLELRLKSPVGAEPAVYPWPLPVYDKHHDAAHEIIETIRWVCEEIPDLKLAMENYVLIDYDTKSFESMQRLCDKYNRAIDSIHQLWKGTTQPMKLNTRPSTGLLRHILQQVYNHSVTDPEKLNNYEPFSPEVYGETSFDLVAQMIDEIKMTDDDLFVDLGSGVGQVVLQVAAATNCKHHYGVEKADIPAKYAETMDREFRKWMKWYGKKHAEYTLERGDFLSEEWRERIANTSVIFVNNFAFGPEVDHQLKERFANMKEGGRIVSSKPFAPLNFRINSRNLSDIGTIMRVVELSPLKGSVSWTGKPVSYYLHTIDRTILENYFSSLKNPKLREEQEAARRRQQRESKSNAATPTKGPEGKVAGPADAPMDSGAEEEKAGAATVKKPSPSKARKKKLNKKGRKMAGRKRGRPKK

For the experiment, the target named is DOT1L(1-416) (Homo sapiens, UniProt Q8TEK3). The experiment is described as follows: Determination of IC50: DOT1L(1-416) methyltransferase assay, 3H-SAM, oligonucleosome substrate, Flashplate. It is filed as biochemical. Particulars: class symbols; read-out: DOT1L IC50. In short, it runs like this:
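Compounds in 10-point 3-fold DMSO dilutions were tested in reactions started with substrate mix of 200 nM [3H]-SAM, 600 nM unlabeled SAM and 20 nM oligonucleosome. Reactions ran 120 min at room temperature and were quenched with 100 μM SAM. Labeled substrate was captured on streptavidin Flashplates and counted by scintillation to give IC50.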
The term IC50 denotes the concentration that inhibits the measured activity by half. On to `CN(C[C@H]1C[C@@H](n2ccc3c(N)ncnc32)[C@H](O)[C@@H]1O)[C@H]1C[C@@H](CCc2nc3cc(Cl)c(Cl)cc3[nH]2)C1` [Compound 52, (1R,2S,3R,5R)-3-(4-amino-7H-pyrrolo[2,3-d]pyrimidin-7-yl)-5-((((1r,3S)-3-(2-(5,6-dichloro-1H-benzo[d]imidazol-2-yl)ethyl)cyclobutyl)(methyl)amino)methyl)cyclopentane-1,2-diol], for which the 50% inhibitory concentration (IC50) is under 0.1 µM.
The value for `CC(C)(C)c1ccc2[nH]c(CC[C@H]3C[C@H](N(C[C@H]4O[C@@H](n5cnc6c(N)ncnc65)[C@H](O)[C@@H]4O)CC(F)(F)F)C3)nc2c1` [Compound 80, (2R,3R,4S,5R)-2-(6-amino-9H-purin-9-yl)-5-((((1s,3R)-3-(2-(5-(tert-butyl)-1H-benzo[d]imidazol-2-yl)ethyl)cyclobutyl) (2,2,2-trifluoroethyl)amino)methyl)tetrahydrofuran-3,4-diol] was 0.1 to 1 µM.
In the case of `CC(C)N(C[C@H]1O[C@@H](n2cnc3c(N)ncnc32)[C@H](O)[C@@H]1O)[C@H]1C[C@H](CCc2nc3cc(C4CC4)ccc3[nH]2)C1` [Compound 119, (2R,3R,4S,5R)-2-(6-amino-9H-purin-9-yl)-5-((((1s,3R)-3-(2-(5-cyclopropyl-1H-benzo[d]imidazol-2-yl)ethyl)cyclobutyl) (isopropyl)amino)methyl)tetrahydrofuran-3,4-diol], the IC50 is under 0.1 µM.
On to `CC(C)N(C[C@H]1O[C@@H](n2cnc3c(N)ncnc32)[C@H](O)[C@@H]1O)C1CC(CCc2nc3cc(C(C)(C)C#N)ccc3[nH]2)C1` (stereo partly drawn) [Compound 120, 2-(2-(2-(3-((((2R,3S,4R,5R)-5-(6-amino-9H-purin-9-yl)-3,4-dihydroxytetrahydro-furan-2-yl)methyl)(isopropyl)amino)cyclobutyl)ethyl)-1H-benzo[d]imidazol-5-yl)-2-methylpropanenitrile], for which the IC50 was under 0.1 µM.
As to `CC(C)N(C[C@H]1O[C@@H](n2cnc3c(N)ncnc32)[C@H](O)[C@@H]1O)[C@H]1C[C@H](CCc2nc3cc(Cl)c(C(F)(F)F)cc3[nH]2)C1` [Compound 4, (2R,3R,4S,5R)-2-(6-amino-9H-purin-9-yl)-5-((((1s,3R)-3-(2-(5-chloro-6-(trifluoromethyl)-1H-benzo[d]imidazol-2-yl)ethyl)cyclobutyl)(isopropyl)amino)methyl)tetrahydrofuran-3,4-diol], the IC50 is under 0.1 µM.
For `CC(C)(C)c1ccc2[nH]c(CC[C@H]3C[C@H](N(C[C@H]4C[C@@H](n5ccc6c(N)ncnc65)[C@H](O)[C@@H]4O)C4CCC4)C3)nc2c1` [Compound 51, (1R,2S,3R,5R)-3-(4-amino-7H-pyrrolo[2,3-d]pyrimidin-7-yl)-5-((((1s,3R)-3-(2-(5-(tert-butyl)-1H-benzo[d]imidazol-2-yl)ethyl)cyclobutyl)(cyclobutyl)amino)methyl)cyclopentane-1,2-diol] the value was under 0.1 µM.
The value for `CC(C)N(C[C@H]1O[C@@H](n2ccc3c(N)ncnc32)[C@H](O)[C@@H]1O)[C@H]1C[C@H](CCc2nc3cc(OC(F)(F)F)ccc3[nH]2)C1` [Compound 76, (2R,3R,4S,5R)-2-(4-amino-7H-pyrrolo[2,3-d]pyrimidin-7-yl)-5-((isopropyl((1s,3R)-3-(2-(5-(trifluoromethoxy)-1H-benzo[d]imidazol-2-yl)ethyl)cyclobutyl)amino)methyl)tetrahydrofuran-3,4-diol] was under 0.1 µM.
With `CN(C[C@H]1O[C@@H](n2ccc3c(N)ncnc32)[C@H](O)[C@@H]1O)C1CC(Cc2nc3cc(C(C)(C)C)ccc3[nH]2)C1` (stereo partly drawn) [Compound 6, (2R,3R,4S,5R)-2-(4-amino-7H-pyrrolo[2,3-d]pyrimidin-7-yl)-5-(((3-((5-(tert-butyl)-1H-benzo[d]imidazol-2-yl)methyl)cyclobutyl)(methyl)amino)methyl)tetrahydrofuran-3,4-diol], the IC50 was under 0.1 µM.
For the compound `CN(C[C@H]1O[C@@H](n2cnc3c(N)ncnc32)[C@H](O)[C@@H]1O)[C@H]1C[C@@H](CCc2nc3cc(C4COC4)ccc3[nH]2)C1` [Compound 63], the IC50 is 0.1 to 1 µM.
In the case of `CC(C)(C)c1ccc2[nH]c(CC[C@H]3C[C@@H](N(C[C@H]4C[C@@H](n5ccc6c(N)ncnc65)[C@H](O)[C@@H]4O)C4CCC4)C3)nc2c1` [Compound 46, (1R,2S,3R,5R)-3-(4-amino-7H-pyrrolo[2,3-d]pyrimidin-7-yl)-5-((((1r,3S)-3-(2-(5-(tert-butyl)-1,1-benzo[d]imidazol-2-yl)ethyl)cyclobutyl)(cyclobutyl)amino)methyl)cyclopentane-1,2-diol], the IC50 is under 0.1 µM.
The value for `CC(C)(C)c1ccc2[nH]c(CCC3CC(N(CC4CC4)C[C@H]4C[C@@H](n5ccc6c(N)ncnc65)[C@H](O)[C@@H]4O)C3)nc2c1` (stereo partly drawn) [Compound 44, (1R,2S,3R,5R)-3-(4-amino-7H-pyrrolo[2,3-d]pyrimidin-7-yl)-5-(((3-(2-(5-(tert-butyl)-1H-benzo[d]imidazol-2-yl)ethyl)cyclobutyl)(cyclopropylmethyl)amino)methyl)cyclopentane-1,2-diol] was under 0.1 µM.
For the compound `CC(C)(C)c1ccc2[nH]c(CC[C@H]3C[C@@H](N(C[C@H]4O[C@@H](n5ccc6c(N)ncnc65)[C@H](O)[C@@H]4O)CC(F)(F)F)C3)nc2c1` [Compound 78, (2R,3R,4S,5R)-2-(4-amino-7H-pyrrolo[2,3-d]pyrimidin-7-yl)-5-((((1r,3S)-3-(2-(5-(tert-butyl)-1H-benzo[d]imidazol-2-yl)ethyl)cyclobutyl)(2,2,2-trifluoroethyl)amino)methyl)tetrahydrofuran-3,4-diol], the IC50 was in the range of 1 to 10 µM.
As for `CN(C[C@H]1C[C@@H](n2ccc3c(N)ncnc32)[C@H](O)[C@@H]1O)C1CC(CCc2nc3cc(C4COC4)ccc3[nH]2)C1` (stereo partly drawn) [Compound 62, (1R,2S,3R,5R)-3-(4-amino-7H-pyrrolo[2,3-d]pyrimidin-7-yl)-5-((methyl(3-(2-(5-(oxetan-3-yl)-1H-benzo[d]imidazol-2-yl)ethyl)cyclobutyl)amino)methyl)cyclopentane-1,2-diol], the IC50 lay in the range of 0.1 to 1 µM.
As for `CCN(C[C@H]1O[C@@H](n2ccc3c(N)ncnc32)[C@H](O)[C@@H]1O)[C@H]1C[C@@H](CCc2nc3cc(C(C)(C)C)ccc3[nH]2)C1` [Compound 89, (2R,3R,4S,5R)-2-(4-amino-7H-pyrrolo[2,3-d]pyrimidin-7-yl)-5-((((1r,3S)-3-(2-(5-(tert-butyl)-1H-benzo[d]imidazol-2-yl)ethyl)cyclobutyl) (ethyl)amino)methyl) tetrahydrofuran-3,4-diol], the IC50 was under 0.1 µM.
Regarding `CN(C[C@H]1C[C@@H](n2ccc3c(N)ncnc32)[C@H](O)[C@@H]1O)[C@H]1C[C@H](CCc2nc3cc(C(F)(F)F)ccc3[nH]2)C1` [Compound 11, (1R,2S,3R,5R)-3-(4-amino-7H-pyrrolo[2,3-d]pyrimidin-7-yl)-5-((methyl((1s,3R)-3-(2-(5-(trifluoromethyl)-1H-benzo[d]imidazol-2-yl)ethyl)cyclobutyl)amino)methyl)cyclopentane-1,2-diol], the IC50 was under 0.1 µM.
The value for `CN(C[C@H]1O[C@@H](n2cnc3c(N)ncnc32)[C@H](O)[C@@H]1O)[C@H]1C[C@H](CCc2nc3cc(C4CCC4)ccc3[nH]2)C1` [Compound 132, (2R,3R,4S,5R)-2-(6-amino-9H-purin-9-yl)-5-((((1s,3R)-3-(2-(5-cyclobutyl-1H-benzo[d]imidazol-2-yl)ethyl)cyclobutyl) (methyl)amino)methyl) tetrahydrofuran-3,4-diol] was under 0.1 µM.
On to `CC(C)N(C[C@H]1O[C@@H](n2cnc3c(N)ncnc32)[C@H](O)[C@@H]1O)C1CC(CCc2nc3cc(C4CCC4)ccc3[nH]2)C1` (stereo partly drawn) [Compound 111, (2R,3R,4S,5R)-2-(6-amino-9H-purin-9-yl)-5-(((3-(2-(5-cyclobutyl-1H-benzo[d]imidazol-2-yl)ethyl)cyclobutyl) (isopropyl)amino)methyl)tetrahydrofuran-3,4-diol], for which the IC50 is under 0.1 µM.
In the case of `CCN(C[C@H]1O[C@@H](n2cnc3c(N)ncnc32)[C@H](O)[C@@H]1O)C1CC(CCc2nc3cc(C(C)(C)C)ccc3[nH]2)C1` (stereo partly drawn) [Compound 79, (2R,3R,4S,5R)-2-(6-amino-9H-purin-9-yl)-5-(((3-(2-(5-(tert-butyl)-1H-benzo[d]imidazol-2-yl)ethyl)cyclobutyl) (ethyl)amino)methyl) tetrahydrofuran-3,4-diol], the IC50 was under 0.1 µM.
Turning to `CC(C)N(C[C@H]1C[C@@H](n2ccc3c(N)ncnc32)[C@H](O)[C@@H]1O)[C@H]1C[C@@H](CCc2nc3cc(OC(F)(F)F)ccc3[nH]2)C1` [Compound 60, (1R,2S,3R,5R)-3-(4-amino-7H-pyrrolo[2,3-d]pyrimidin-7-yl)-5-((isopropyl((1r,3S)-3-(2-(5-(trifluoromethoxy)-1H-benzo[d]imidazol-2-yl)ethyl)cyclobutyl)amino)methyl)cyclopentane-1,2-diol], the IC50 was under 0.1 µM.
Take `CC(C)(C)c1ccc2[nH]c(CC[C@H]3C[C@@H](NC[C@H]4O[C@@H](n5cnc6c(N)ncnc65)[C@H](O)[C@@H]4O)C3)nc2c1` [Compound 98, (2R,3R,4S,5R)-2-(6-amino-9H-purin-9-yl)-5-((((1r,3S)-3-(2-(5-(tert-butyl)-1H-benzo[d]imidazol-2-yl)ethyl)cyclobutyl)amino)methyl) tetrahydrofuran-3,4-diol]: the IC50 was under 0.1 µM.
The value for `CCN(C[C@H]1O[C@@H](n2cnc3c(N)ncnc32)[C@H](O)[C@@H]1O)[C@H]1C[C@@H](CCc2nc3cc(C(C)(C)C)ccc3[nH]2)C1` [Compound 73, (2R,3R,4S,5R)-2-(6-amino-9H-purin-9-yl)-5-((((1r,35)-3-(2-(5-(tert-butyl)-1H-benzo[d]imidazol-2-yl)ethyl)cyclobutyl)(ethyl)amino)methyl)tetrahydrofuran-3,4-diol] was under 0.1 µM.
